From PubChem BioAssay AID248 (DTP/NCI, 2004)
Values joined by “and” are separate entries in the source; they are usually repeats but may differ in a detail not shown here. Identical values can stand only once. Toxic doses and inconclusive results are not listed. Rule as the data show it: active = T/C of 150% or more; inactive = T/C below 125%.

Test system: L1210 leukemia ip in BDF1 mice, survival T/C
Assay: NCI In Vivo Anticancer Drug Screen. Data for tumor model L1210 Leukemia (intraperitoneal) in B6D2F1 (BDF1) mice
Conditions: higher = longer survival
In short: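 Read-out is survival time, reported as the treated-group measurement over the vehicle-control measurement.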

[1] = endpoint: mean survival time, dose: 100.0 mg/kg/injection, schedule: Q01DX001 (ip), vehicle: carboxymethylcellulose (CMC)
[2] = endpoint: mean survival time, dose: 200.0 mg/kg/injection, schedule: Q01DX001 (ip), vehicle: carboxymethylcellulose (CMC)
[3] = endpoint: mean survival time, dose: 400.0 mg/kg/injection, schedule: Q01DX001 (ip), vehicle: carboxymethylcellulose (CMC)
[4] = endpoint: mean survival time, dose: 75.0 mg/kg/injection, schedule: Q01DX001 (ip), vehicle: saline
[5] = endpoint: mean survival time, dose: 25.0 mg/kg/injection, schedule: Q04DX003 (ip), vehicle: Klucel (hydroxypropylcellulose) (HPC)
[6] = endpoint: mean survival time, dose: 50.0 mg/kg/injection, schedule: Q04DX003 (ip), vehicle: Klucel (hydroxypropylcellulose) (HPC)
[7] = endpoint: mean survival time, dose: 100.0 mg/kg/injection, schedule: Q04DX003 (ip), vehicle: Klucel (hydroxypropylcellulose) (HPC)
[8] = endpoint: mean survival time, dose: 100.0 mg/kg/injection, schedule: Q01DX009 (ip), vehicle: Klucel (hydroxypropylcellulose) (HPC)
[9] = endpoint: mean survival time, dose: 200.0 mg/kg/injection, schedule: Q01DX009 (ip), vehicle: Klucel (hydroxypropylcellulose) (HPC)
[10] = endpoint: mean survival time, dose: 400.0 mg/kg/injection, schedule: Q01DX009 (ip), vehicle: Klucel (hydroxypropylcellulose) (HPC)
[11] = endpoint: mean survival time, dose: 100.0 mg/kg/injection, schedule: Q04DX003 (ip), vehicle: saline
[12] = endpoint: mean survival time, dose: 200.0 mg/kg/injection, schedule: Q04DX003 (ip), vehicle: saline
[13] = endpoint: mean survival time, dose: 100.0 mg/kg/injection, schedule: Q01DX001 (ip), vehicle: saline
[14] = endpoint: mean survival time, dose: 400.0 mg/kg/injection, schedule: Q01DX001 (ip), vehicle: saline
[15] = endpoint: mean survival time, dose: 400.0 mg/kg/injection, schedule: Q04DX003 (ip), vehicle: saline
[16] = endpoint: mean survival time, dose: 200.0 mg/kg/injection, schedule: Q04DX003 (ip), vehicle: Klucel (hydroxypropylcellulose) (HPC)
[17] = endpoint: mean survival time, dose: 400.0 mg/kg/injection, schedule: Q04DX003 (ip), vehicle: Klucel (hydroxypropylcellulose) (HPC)
[18] = endpoint: mean survival time, dose: 50.0 mg/kg/injection, schedule: Q01DX009 (ip), vehicle: saline with Tween-80
[19] = endpoint: mean survival time, dose: 100.0 mg/kg/injection, schedule: Q01DX009 (ip), vehicle: saline with Tween-80
[20] = endpoint: mean survival time, dose: 200.0 mg/kg/injection, schedule: Q01DX009 (ip), vehicle: saline with Tween-80
[21] = endpoint: mean survival time, dose: 10.0 mg/kg/injection, schedule: Q01DX001 (ip), vehicle: carboxymethylcellulose (CMC)
[22] = endpoint: mean survival time, dose: 20.0 mg/kg/injection, schedule: Q01DX001 (ip), vehicle: carboxymethylcellulose (CMC)
[23] = endpoint: mean survival time, dose: 25.0 mg/kg/injection, schedule: Q01DX001 (ip), vehicle: saline
[24] = endpoint: mean survival time, dose: 50.0 mg/kg/injection, schedule: Q01DX001 (ip), vehicle: saline
[25] = endpoint: mean survival time, dose: 200.0 mg/kg/injection, schedule: Q01DX001 (ip), vehicle: saline

Measured: T/C

O=c1[nH]c2ccccc2c2ccc(Cl)cc12
inactive: [1] 103 % of control | [2] 100 % of control | [3] 102 % of control

CCCCNCCOC(=O)c1ccc(N)cc1
inactive: [4] 106 % of control

CN(C(=O)CCl)c1ccccc1
inactive: endpoint: mean survival time, dose: 12.5 mg/kg/injection, schedule: Q01DX009 (ip), vehicle: Klucel (hydroxypropylcellulose) (HPC) 92 % of control | endpoint: mean survival time, dose: 25.0 mg/kg/injection, schedule: Q01DX009 (ip), vehicle: Klucel (hydroxypropylcellulose) (HPC) 98 % of control | [5] 104 % of control | endpoint: mean survival time, dose: 50.0 mg/kg/injection, schedule: Q01DX009 (ip), vehicle: Klucel (hydroxypropylcellulose) (HPC) 93 % of control | [6] 98 % of control | [7] 88 % of control

CCOC(=O)C1C(=O)C(CN(CCCl)CCCl)C(=O)C(C(=O)OCC)C1c1ccc(OC)c(OC)c1OC (configuration not stated)
inactive: [8] 90 % of control | [9] 92 % of control | [10] 95 % of control

Cc1c([N+](=O)[O-])cc(C(C)(C)C)c(OC(=O)Nc2ccccc2)c1[N+](=O)[O-]
inactive: endpoint: mean survival time, dose: 12.5 mg/kg/injection, schedule: Q04DX003 (ip), vehicle: Klucel (hydroxypropylcellulose) (HPC) 93 % of control | [5] 106 % of control | [6] 95 % of control

COC(=O)C(NC(=O)C(NC(=O)Cc1ccccc1)SCc1ccccc1)=C(C)C (configuration not stated)
inactive: [11] 95 % of control | [12] 89 % of control

CCc1ccc2[nH]c(C(=O)O)cc2c1
inactive: [13] 92 % of control | [14] 90 % of control

Nc1ccc2c(c1)C(=O)c1c(F)c(F)c(F)c(F)c1-2
inactive: endpoint: mean survival time, dose: 50.0 mg/kg/injection, schedule: Q01DX001 (ip), vehicle: carboxymethylcellulose (CMC) 97 % of control | [1] 103 % of control | [2] 97 % of control | [3] 100 % of control

Clc1ccccc1/C=C/C=C1c2ccccc2-c2ccccc21
inactive: [11] 98 % of control and 90 % of control | [12] 98 % of control | [15] 105 % of control and 92 % of control

O=C(NCCCl)C(Cl)(Cl)Cl
inactive: [7] 98 % of control | [16] 97 % of control | [17] 106 % of control

CC(C)=CCC/C(C)=C/C=C1C(=O)NC(=S)NC1=O
inactive: [18] 117 % of control | [19] 103 % of control | [20] 103 % of control

NC(=S)N/N=C\c1c[nH]c2cc(C(F)(F)F)ccc12
inactive: endpoint: mean survival time, dose: 5.0 mg/kg/injection, schedule: Q01DX001 (ip), vehicle: carboxymethylcellulose (CMC) 101 % of control | [21] 95 % of control | [22] 101 % of control | endpoint: mean survival time, dose: 40.0 mg/kg/injection, schedule: Q01DX001 (ip), vehicle: carboxymethylcellulose (CMC) 101 % of control

COC(=O)C1CC23C=CCN4CC(C2C)C2(c5ccccc5NC12)C43 (configuration not stated)
inactive: endpoint: mean survival time, dose: 0.03 mg/kg/injection, schedule: Q01DX001 (ip), vehicle: saline 101 % of control | endpoint: mean survival time, dose: 0.06 mg/kg/injection, schedule: Q01DX001 (ip), vehicle: saline 98 % of control | endpoint: mean survival time, dose: 0.13 mg/kg/injection, schedule: Q01DX001 (ip), vehicle: saline 93 % of control | endpoint: mean survival time, dose: 0.25 mg/kg/injection, schedule: Q01DX001 (ip), vehicle: saline 101 % of control | endpoint: mean survival time, dose: 0.5 mg/kg/injection, schedule: Q01DX001 (ip), vehicle: saline 97 % of control | endpoint: mean survival time, dose: 1.0 mg/kg/injection, schedule: Q01DX001 (ip), vehicle: saline 97 % of control | endpoint: mean survival time, dose: 2.0 mg/kg/injection, schedule: Q01DX001 (ip), vehicle: saline 98 % of control | [23] 101 % of control | [24] 95 % of control | [13] 101 % of control

CC(=O)c1c2ccccc2cc2ccccc12
inactive: [13] 106 % of control | [25] 106 % of control | [14] 101 % of control

C[N+](C)(C)Cc1ccccc1/C(=N\O)c1ccccc1
inactive: [21] 96 % of control | [22] 101 % of control

Clc1ccc(Nc2cc[n+]3ccccc3c2)cc1Cl
inactive: endpoint: mean survival time, dose: 25.0 mg/kg/injection, schedule: Q01DX001 (ip), vehicle: Klucel (hydroxypropylcellulose) (HPC) 98 % of control | endpoint: mean survival time, dose: 50.0 mg/kg/injection, schedule: Q01DX001 (ip), vehicle: Klucel (hydroxypropylcellulose) (HPC) 96 % of control | endpoint: mean survival time, dose: 100.0 mg/kg/injection, schedule: Q01DX001 (ip), vehicle: Klucel (hydroxypropylcellulose) (HPC) 102 % of control and 117 % of control

CS(=O)(=O)OC12CC3CC(CC(C3)C1)C2
inactive: endpoint: mean survival time, dose: 50.0 mg/kg/injection, schedule: Q01DX009 (ip), vehicle: saline 96 % of control | [13] 90 % of control | endpoint: mean survival time, dose: 100.0 mg/kg/injection, schedule: Q01DX009 (ip), vehicle: saline 96 % of control | [25] 98 % of control | endpoint: mean survival time, dose: 200.0 mg/kg/injection, schedule: Q01DX009 (ip), vehicle: saline 94 % of control

O=C1CNCSC1
inactive: endpoint: mean survival time, dose: 100.0 mg/kg/injection, schedule: Q04DX002 (ip), vehicle: saline 102 % of control | endpoint: mean survival time, dose: 200.0 mg/kg/injection, schedule: Q04DX002 (ip), vehicle: saline 115 % of control | endpoint: mean survival time, dose: 400.0 mg/kg/injection, schedule: Q04DX002 (ip), vehicle: saline 94 % of control

COc1cc([C@@H]2c3cc4c(cc3C[C@H]3COC(=O)[C@@H]32)OCO4)cc(OC)c1OC
inactive: endpoint: mean survival time, dose: 3.12 mg/kg/injection, schedule: Q01DX009 (ip), vehicle: saline 94 % of control | endpoint: mean survival time, dose: 6.25 mg/kg/injection, schedule: Q01DX009 (ip), vehicle: saline 109 % of control | endpoint: mean survival time, dose: 12.5 mg/kg/injection, schedule: Q01DX001 (ip), vehicle: saline 115 % of control | endpoint: mean survival time, dose: 12.5 mg/kg/injection, schedule: Q01DX009 (ip), vehicle: saline 110 % of control | [23] 115 % of control | endpoint: mean survival time, dose: 25.0 mg/kg/injection, schedule: Q01DX009 (ip), vehicle: saline 116 % of control | endpoint: mean survival time, dose: 45.0 mg/kg/injection, schedule: Q01DX001 (ip), vehicle: saline 123 % of control | endpoint: mean survival time, dose: 50.0 mg/kg/injection, schedule: Q01DX001 (ip), vehicle: other 109 % of control | endpoint: mean survival time, dose: 50.0 mg/kg/injection, schedule: Q01DX001 (ip), vehicle: saline with Tween-80 110 % of control | [24] 111 % of control and 117 % of control | endpoint: mean survival time, dose: 50.0 mg/kg/injection, schedule: Q04DX003 (ip), vehicle: saline with Tween-80 116 % of control | endpoint: mean survival time, dose: 100.0 mg/kg/injection, schedule: Q01DX001 (ip), vehicle: other 116 % of control | endpoint: median survival time, dose: 2.5 mg/kg/injection, schedule: Q01DX009 (ip), vehicle: saline 111 % of control | endpoint: median survival time, dose: 5.0 mg/kg/injection, schedule: Q01DX009 (ip), vehicle: saline 122 % of control | endpoint: median survival time, dose: 10.0 mg/kg/injection, schedule: Q01DX009 (ip), vehicle: saline 88 % of control

NC(=S)N/N=C\C(=N/NC(N)=S)C(O)CO (configuration not stated)
inactive: [4] 97 % of control | endpoint: mean survival time, dose: 150.0 mg/kg/injection, schedule: Q01DX001 (ip), vehicle: saline 101 % of control

Fc1ccc(C=C2c3ccccc3-c3ccccc32)cc1
inactive: endpoint: mean survival time, dose: 25.0 mg/kg/injection, schedule: Q04DX002 (ip), vehicle: gum acacia 109 % of control | endpoint: mean survival time, dose: 50.0 mg/kg/injection, schedule: Q04DX002 (ip), vehicle: gum acacia 92 % of control | endpoint: mean survival time, dose: 100.0 mg/kg/injection, schedule: Q04DX002 (ip), vehicle: gum acacia 92 % of control

CC(C)=CCC/C(C)=C/CO
inactive: [18] 92 % of control | [1] 95 % of control | [19] 98 % of control | [2] 108 % of control | [20] 98 % of control | [3] 101 % of control

ClC1=C(Cl)C2(Cl)C3C4CCC(C4)C3C1(Cl)C2(Cl)Cl (configuration not stated)
inactive: [12] 121 % of control | [15] 108 % of control

Clc1ccc(/C(=[C](\[Hg]/[C](=C(\c2ccccc2)c2ccc(Cl)cc2)c2ccccc2)c2ccccc2)c2ccccc2)cc1
inactive: [8] 96 % of control | [7] 101 % of control | [9] 102 % of control | [16] 107 % of control | [10] 96 % of control | [17] 102 % of control
